# System: human ovarian carcinoma (A2780)
# Test: Efficacy of PEG-leu-doxorubicin analogs against subcutaneous human ovarian carcinoma (A2780) xenograft in nude mice
# Type: in vivo
# Conditions: intravenous Qd7 × 3, 30 mg/kg/dose
# Description: The efficacy of PEG-leu-doxorubicin analogs against a subcutaneous human ovarian carcinoma (A2780) injected into nude mice was determined as follows.
# Following at least one week of acclimation, tumors were established in nude mice by injecting 1×10^6 […] harvested A2780 ovarian carcinoma cells in a single subcutaneous site, on the left axillary flank region of each animal. The tumor injection site was observed twice weekly and measured once palpable. The tumor volume for each mouse was determined by measuring two dimensions with calipers and calculated using the formula: tumor volume=(length×width^2)/2). When tumors reached the average volume of approximately 80 mm^3, the mice were divided into their respective experimental groups, which consists of vehicle (20 m M sodium phosphate in 0.6% NaCl) controls, Leu-Doxorubicin, compound 1 of Example 1, compound 10 of Example 4, and compound 12 of Example 5). The mice were sorted to evenly distribute tumor size, grouped into 6 mice/cage, and ear punched for permanent identification. Drugs were dosed intravenously via the tail vein once per week for three weeks (Qd7×3). Mouse weight and tumor sizes were measured at the beginning of study and twice weekly through week 5.
# The overall growth of tumors was calculated as the mean tumor volume at one week following the end of the treatment. A percent treatment over control (T/C) value was also calculated when the control group's median tumor size reached approximately 800-1100 mm^3 and again at one week following treatment. The T/C value in percent is a non-quantitative indication of anti-tumor effectiveness.
smiles,measurement,setting,value
"COc1cccc2c1C(=O)c1c(O)c3c(c(O)c1C2=O)C[C@@](O)(C(=O)CO)C[C@@H]3O[C@H]1C[C@H](NC(=O)[C@@H](N)CC(C)C)[C@H](O)[C@H](C)O1 [Leu-Dox, Leucine-doxorubicin]",Tumor Volume (mean ± sem) Day 21,"A2780 xenograft in nude mice, established tumors ~80 mm^3, n = 6/group, day 21",659 ± 173 mm^3
same,T/C (%) At Day 21,median tumor volume treatment vs control one week after final dosage (day 21),19.7%
same,T/C (%) At 1000 mm^3,median tumor volume treatment vs control when control median reached approximately 1000 mm^3,26.3%
